Measurements reported in patent EP4635969A1, “NOVEL GLUCOCORTICOID, METHOD FOR PREPARING SAME, AND USE THEREOF” (Tianjin Pharmaceutical Biotechnology Co., Ltd., priority 2022, dated 2024).

Experiments:
[1] = target: T1, progesterone receptor (PR) (Homo sapiens, UniProt P06401); test: Assay for agonist activity on progesterone receptor (luciferase reporter, HEK293 cells transfected with pBIND-PR plasmid); format: cell-based; conditions: for Target selectivity PR/GR: ratio of EC50 values
T1 sequence (P06401 678-933): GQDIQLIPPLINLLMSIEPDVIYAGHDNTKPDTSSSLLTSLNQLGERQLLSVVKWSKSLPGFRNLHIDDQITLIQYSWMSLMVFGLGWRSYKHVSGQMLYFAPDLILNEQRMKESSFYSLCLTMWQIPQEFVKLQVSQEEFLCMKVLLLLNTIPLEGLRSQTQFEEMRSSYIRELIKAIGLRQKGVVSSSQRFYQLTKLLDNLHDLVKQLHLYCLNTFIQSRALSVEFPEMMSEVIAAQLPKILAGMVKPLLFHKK
Procedure, shortened: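 HEK293 cells transiently transfected with pBIND-MR or pBIND-PR, seeded in phenol red-free DMEM with 5% charcoal-stripped serum. Compounds tested as 12-point 4-fold dilutions from 50 µM in duplicate, 0.1% DMSO blank. Luciferase luminescence read, EC50 by nonlinear fit.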

[2] = Stability in animal lung tissue homogenate, skin tissue homogenate and aqueous humor; format: in vitro ADME
[3] = test system: psoriasis model mice; test: Psoriasis experiment (imiquimod model): skin lesion (PASI) score; format: in vivo; conditions: compared with the model group
[4] = test system: IL-17; test: Psoriasis experiment (imiquimod model): inflammatory cytokine in serum (ELISA); format: in vivo, mice; conditions: compared with the model group
Procedure: Positive control drug: Fluticasone Propionate Cream (specification: 0.05% × 15 g, Zhejiang Xianju Pharmaceutical Co. Ltd., Lot No. 211106), stored at room temperature protected from light until use.
Adult mice were selected, and the skin of 2 cm × 3 cm on the back of mice was locally depilated. The mice in the model group and drug administration group were applied with 62.5 mg of 5% imiquimod cream on their back for modeling, while the mice in the blank control group were applied with medical petroleum jelly on their back daily. The above procedures were performed once a day for 7 consecutive days.
The mice in the drug administration group were applied with the corresponding drugs on their backs daily at a dose of 0.2 g per mouse, while the blank control group and the model group were only applied with 0.2 g of the test sample drug matrix. One hour after drug administration, the drugs were wiped off with sterile cotton swabs, followed by the application of imiquimod. The above procedures were performed once a day for 7 consecutive days.
After the PASI scoring on day 8 of modeling, blood was collected from the orbital sinus of mice and centrifuged at 3000 rpm for 10 min. The supernatant was extracted to measure the level of IL-17. All procedures were performed following the instructions of the ELISA kit.
Statistical analysis was performed using SPSS software, and the results were expressed as mean ± standard deviation. One-way ANOVA was used for intergroup comparisons. For data with homogeneous variance, the LSD test was used; for data with heterogeneous variance, the Dunnett-t test was used. A value of P < 0.05 was considered statistically significant.

[5] = test system: epidermal layer in rats; test: Adverse reactions of continuous dermal administration: thickness of the epidermal layer (H&E sections); format: in vivo, SD rats; conditions: compared with the blank control group
From the text: Pharmacological Example 10: Experiment on Adverse Reactions of Continuous Dermal Administration in Rats
Animals: SD rats, SPF grade, with an equal number of males and females, weighing 230-250 g.
Animal grouping: After adaptive feeding, the rats were randomly divided into 4 groups. […] One day before administration, the backs of rats were shaved at an area of 5 cm × 6 cm. […] The rats in the blank control group were applied with the blank matrix of corresponding mass on their backs, twice a day for a consecutive week. Table 21. Animal grouping and drug administration dosages for the experiment on adverse reactions of continuous dermal administration in rats
To examine the effects of continuous administration of the test samples on the epidermal layer, the back skin tissues were stained with hematoxylin and eosin (H&E) (magnification ×40), and the thickness of the epidermal layer was quantitatively measured based on the H&E-stained sections.

[6] = Pharmacokinetic (PK) experiment in rats; format: in vivo, male SD rats; conditions: same experimental conditions
Procedure, shortened: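 Male SD rats dosed by body weight, oral group fasted overnight until 4 h post-dose. Jugular blood sampled 2 min–24 h into heparin; plasma analysed and PK parameters derived from concentration–time data.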

SMILES	EC50 [1] [µM]	Target selectivity PR/GR [1]	stability in animal lung tissue homogenate, skin tissue homogenate, and aqueous humor [2]	PASI scores [3]	level of IL-17 / inflammatory cytokines in psoriasis model mice [4]	thickness of the epidermal layer after continuous dermal administration [5]	pharmacokinetic properties (plasma clearance rate, systemic exposure) [6]
C[C@]12C=CC(=O)C=C1CC[C@H]1[C@@H]3C[C@H]4OC(c5ccc(CSC6CCOC6=O)nc5)O[C@@]4(C(=O)CO)[C@@]3(C)C[C@H](O)[C@@]12F (stereo partly drawn) [Compound 47, (6aS,6bR,7S,8aS,8bS,11aR,12aS,12bS)-6b-Fluoro-7-hydroxy-8b-(2-hydroxyacetyl)-6a,8a-dimethyl-10-(6-(((2-oxotetrahydrofuran-3-yl)thio)methyl)pyridin-3-yl)-1,2,6a,6b,7,8,8a,8b,11a,12,12a,12 b-dodecahydro-4H-naphtho[2',1':4,5]indeno[1,2-d][1,3]dioxol-4-one]	> 50	> 1.5×10^5	relatively stable	significantly decreased PASI scores on day 7	significantly inhibited inflammatory cytokines in the skin of psoriasis model mice	no significant changes in the thickness of the epidermal layer observed	pharmacokinetic properties similar to those of compound 8
C[C@]12C=CC(=O)C=C1[C@@H](F)C[C@H]1[C@@H]3C[C@H]4OC(c5ccc(CSC6CCOC6=O)cc5)O[C@@]4(C(=O)SCC#N)[C@@]3(C)C[C@H](O)[C@@]12F (stereo partly drawn) [Compound 35, S-(Cyanomethyl) (2S,6aS,6bR,7S,8aS,8bS,11aR,12aS,12bS)-2,6b-difluoro-7-hydroxy-6a,8a-dimethyl-4-oxo-10-(4-( ((2-oxotetrahydrofuran-3-yl)thio)methyl)phenyl)-1,2,4,6a,6b,7,8,8a,11a,12,12a,12b-dodecahydro-8bH-naphtho[2',1':4,5]indeno[1,2-d][1,3]dioxole-8b-carbothioate]	> 50	> 2.4×10^5	relatively stable	significantly decreased PASI scores on day 7	significantly inhibited inflammatory cytokines in the skin of psoriasis model mice	no significant changes in the thickness of the epidermal layer observed	pharmacokinetic properties similar to those of compound 8
